# Patent US20230119764A1, “APPLICATION OF DIMETHYL BERBAMINE COMPOUND IN INHIBITION OF SARS-COV-2” (priority 2020, published 2023)
# “Also recorded” adds a separate entry of the source.
# What was measured:
# [1] = tested on: SARS-CoV-2 virus (nCoV-2019BetaCoV/Wuhan/WIV04/2019 isolate); assay: microbe, parasite or virus in culture; format: cell-based; conditions: for Copy number of viral genome (MOI = 0.01): MOI 0.01, Vero E6 supernatant; for Copy number of viral genome (MOI = 0.01) / Copy number of viral genome (MOI = 0.05): 48 h, copy number per milliliter; for Copy number of viral genome (MOI = 0.05): MOI 0.05, Vero E6 supernatant; for Inhibition of SARS-CoV-2 (in words): Example 1, in vitro, Vero E6; for EC50: Severe acute respiratory syndrome coronavirus 2, Vero C1008, Example 1, drug pretreatment 1 hour; for SI (selectivity index): Example 1, drug pretreatment 1 hour
# SARS-CoV-2 virus = conditions: previous studies, Wang et al., 2020; cited from earlier work
# [2] = tested on: SARS-CoV-2 virus (nCoV-2019BetaCoV/Wuhan/WIV04/2019 isolate); assay: microbe, parasite or virus in culture; format: cell-based; conditions: for Inhibition of SARS-CoV-2 (in words): Example 2, drug added after virus infection of cells; for EC50: Severe acute respiratory syndrome coronavirus 2, Vero C1008, Example 2, no drug pretreatment; for SI (selectivity index): Example 2, no drug pretreatment
# Vero-E6 cells = assay: Drug cytotoxicity on cells, CellTiter-Glo kit; format: cell-based; conditions: for Cell viability (% of vehicle control): Vero-E6, 24 hours
# Method: (§1) 1.5.1 Vero E6 cell culture: 0.1 ml of 0.25% trypsin, 5 ml of 0.02% EDTA were added to a culture flask full of cells, the digestion was carried out at 37° C. for 5 minutes, then the digestion solution was discarded, the cell culture solution was added and then mixed by pipetting up-down. The cells were subcultured at 1:3, reached confluence within 3 days, formulated into 100,000 cells per ml, inoculated to a 96-well cell culture plate, 0.1 ml per well, and cultured at 37° C., 5% CO2 for 24 hours, and the cells grew into monolayer was used for experiment.
# (§2) 1.5.2 Experiment of Drug Cytotoxicity on Cells:
# (§3) The detection of drug cytotoxicity was determined using CellTiter-Glo kit (Promega). Specific steps were as follows:
# (§4) (1) 1×10^4 Vero-E6 cells were inoculated in a 96-well plate and cultured at 37° C. for 8 hours.
# (§5) (2) The stock solution of drug was diluted with MEM medium containing 2% FBS to the desired concentration, the original medium in the 96-well plate was discarded, and 100 μL of the drug-containing MEM medium was taken and added to the corresponding wells, so that the final concentrations of drug in the wells were those shown in Tables 1 to 3, respectively, and three replicate wells were made for each concentration. At the same time, a vehicle control (adding DMSO or PBS, and 2% FBS-containing MEM medium without drug to the cell wells) and a blank control (adding DMSO and 2% FBS-containing MEM medium to the wells without cells) were set. After the addition of drug, the cells were incubated at 37° C. for 24 hours.
# (§6) (3) 100 μL of CellTiter-Glo solution (Promega) was added to the wells to be tested, and mixed by shaking for 2 min to fully lyse the cells, incubated at room temperature for 10 minutes, and readings of chemiluminescence signals […] were obtained on a microplate reader (purchased from Molecular Devices, model: SpectraMax M5). The cell viability was calculated by taking the readings into the following formula:
# (§7) Cell viability (%)=(A(drug treatment group)−A(blank control))/(A(vehicle control)−A(blank control))×100%
# (§8) where A represented the reading on the microplate reader.
# [3] = Drug cytotoxicity on cells, CellTiter-Glo kit; format: cell-based; conditions: African green monkey, Vero-E6 cells, 24 hours
# Method: as §1, §2, §3, §4, §5, §6, §7, §8
# [4] = tested on: SARS-CoV-2 virus (nCoV-2019BetaCoV/Wuhan/WIV04/2019 isolate); assay: EC50 by nucleic acid quantification on Vero cells (Example 3), quantitative RT-PCR; format: cell-based
# [5] = MOI 0.01, Vero E6, read-out: EC50
# [6] = MOI 0.05, Vero E6, read-out: EC50
smiles,measurement,setting,value
"CCN(CC)CCCC(C)Nc1ccnc2cc(Cl)ccc12 (centres unmarked) [Chloroquine phosphate, chloroquine phosphate]",Copy number of viral genome (MOI = 0.01),[1]; 0.21 μM,3451032833
same,Copy number of viral genome (MOI = 0.05),[1]; 0.21 μM,5871676583
same,Copy number of viral genome (MOI = 0.01),[1]; 0.62 μM,2407772083
same,Copy number of viral genome (MOI = 0.05),[1]; 0.62 μM,5663562000
same,Copy number of viral genome (MOI = 0.01),[1]; 1.85 μM,1500455250
same,Copy number of viral genome (MOI = 0.05),[1]; 1.85 μM,4521430250
same,Copy number of viral genome (MOI = 0.01),[1]; 5.56 μM,692991541
same,Copy number of viral genome (MOI = 0.05),[1]; 5.56 μM,1814432458
same,Copy number of viral genome (MOI = 0.01),[1]; 16.67 μM,11907226
same,Copy number of viral genome (MOI = 0.05),[1]; 16.67 μM,52973263
same,Copy number of viral genome (MOI = 0.01),[1]; 50 μM,1019575
same,Copy number of viral genome (MOI = 0.05),[1]; 50 μM,1914748
same,Inhibition of SARS-CoV-2 (in words),[1],obvious inhibitory effects; also recorded: inhibitory activity
same,EC50,[1]; [5],1540 nM
same,EC50,[1]; [6],3770 nM
same,Inhibition of replication of SARS-CoV-2 virus (in words),SARS-CoV-2 virus,can effectively inhibit the replication
same,Inhibition of SARS-CoV-2 (in words),[2],obvious inhibitory effects; also recorded: inhibitory activity
same,EC50,[2]; [5],4520 nM
same,EC50,[2]; [6],3630 nM
same,Cell viability (% of vehicle control),Vero-E6 cells; 3.70 μM,93.26 % of vehicle control
same,Cell viability (% of vehicle control),Vero-E6 cells; 11.11 μM,90.60 % of vehicle control
same,Cell viability (% of vehicle control),Vero-E6 cells; 33.33 μM,72.67 % of vehicle control
same,Cell viability (% of vehicle control),Vero-E6 cells; 66.67 μM,68.35 % of vehicle control
same,Cell viability (% of vehicle control),Vero-E6 cells; 100 μM,44.84 % of vehicle control
same,Cell viability (% of vehicle control),Vero-E6 cells; 200 μM,41.01 % of vehicle control
same,Cell viability (% of vehicle control),Vero-E6 cells; 300 μM,0.63 % of vehicle control
same,CC50 at 24 h,[3]; unit inferred,92900 nM
CCC(CC)COC(=O)[C@H](C)N[P@](=O)(OC[C@H]1O[C@@](C#N)(c2ccc3c(N)ncnn23)[C@H](O)[C@@H]1O)Oc1ccccc1 [Remdesivir],Copy number of viral genome (MOI = 0.01),[1]; 0.12 μM,3900176000
same,Copy number of viral genome (MOI = 0.05),[1]; 0.12 μM,11594175000
same,Copy number of viral genome (MOI = 0.01),[1]; 0.37 μM,1901120292
same,Copy number of viral genome (MOI = 0.05),[1]; 0.37 μM,9405568167
same,Copy number of viral genome (MOI = 0.01),[1]; 1.11 μM,19898611
same,Copy number of viral genome (MOI = 0.05),[1]; 1.11 μM,545157271
same,Copy number of viral genome (MOI = 0.01),[1]; 3.33 μM,243294
same,Copy number of viral genome (MOI = 0.05),[1]; 3.33 μM,13188656
same,Copy number of viral genome (MOI = 0.01),[1]; 10 μM,563645
same,Copy number of viral genome (MOI = 0.05),[1]; 10 μM,3230111
same,Copy number of viral genome (MOI = 0.01),[1]; 30 μM,975616
same,Copy number of viral genome (MOI = 0.05),[1]; 30 μM,2594526
same,SI (selectivity index),[1]; MOI 0.01,534.33
same,SI (selectivity index),[1]; MOI 0.05,271.69
same,EC50,"[1]; MOI 0.01, Vero E6",300 nM
same,EC50,"[1]; MOI 0.05, Vero E6",590 nM
same,SI (selectivity index),[2]; MOI 0.01,696.96
same,SI (selectivity index),[2]; MOI 0.05,258.55
same,EC50,"[2]; MOI 0.01, Vero E6",230 nM
same,EC50,"[2]; MOI 0.05, Vero E6",620 nM
same,Cell viability (% of vehicle control),Vero-E6 cells; 3.13 μM,97.16 % of vehicle control
same,Cell viability (% of vehicle control),Vero-E6 cells; 6.25 μM,99.17 % of vehicle control
same,Cell viability (% of vehicle control),Vero-E6 cells; 12.5 μM,99.62 % of vehicle control
same,Cell viability (% of vehicle control),Vero-E6 cells; 25 μM,95.71 % of vehicle control
same,Cell viability (% of vehicle control),Vero-E6 cells; 50 μM,90.20 % of vehicle control
same,Cell viability (% of vehicle control),Vero-E6 cells; 100 μM,70.09 % of vehicle control
same,Cell viability (% of vehicle control),Vero-E6 cells; 200 μM,40.05 % of vehicle control
same,CC50 at 24 h,[3],160000 nM
"COc1ccc2cc1Oc1ccc(cc1)C[C@H]1c3cc(c(OC)cc3CCN1C)Oc1c(OC)c(OC)cc3c1[C@H](C2)N(C)CC3 [Tetrandrine, 6,6′,7,12-tetramethoxy-2,2′-dimethylberbamine]",Inhibition of SARS-CoV-2 (in words),"[4]; Example 3, cellular level, Vero cells",inhibitory effect
same,EC50,"[4]; Severe acute respiratory syndrome coronavirus 2, 48 h, Example 3, Vero cells, viral load 100 TCID50, two days after infection",8990 nM
same,Copy number of viral genome (MOI = 0.01),[1]; 0.625 μM,3357508000
same,Copy number of viral genome (MOI = 0.05),[1]; 0.625 μM,10669558667
same,Copy number of viral genome (MOI = 0.01),[1]; 1.25 μM,3336005167
same,Copy number of viral genome (MOI = 0.05),[1]; 1.25 μM,7198143667
same,Copy number of viral genome (MOI = 0.01),[1]; 2.5 μM,1707286250
same,Copy number of viral genome (MOI = 0.05),[1]; 2.5 μM,7118504000
same,Copy number of viral genome (MOI = 0.01),[1]; 5 μM,373861479
same,Copy number of viral genome (MOI = 0.05),[1]; 5 μM,2477488500
same,Copy number of viral genome (MOI = 0.01),[1]; 10 μM,1456943
same,Copy number of viral genome (MOI = 0.05),[1]; 10 μM,8161310
same,Copy number of viral genome (MOI = 0.01),[1]; 20 μM,1323393
same,Copy number of viral genome (MOI = 0.05),[1]; 20 μM,4092752
same,SI (selectivity index),[1]; MOI 0.01,14.33
same,SI (selectivity index),[1]; MOI 0.05,8.51
same,Inhibition of SARS-CoV-2 (in words),[1],obvious inhibitory effects; also recorded: inhibitory activity
same,EC50,[1]; [5],1710 nM
same,EC50,[1]; [6],2880 nM
same,Inhibition of SARS-CoV-2 (in words),[2],inhibitory activity
same,Inhibition of SARS-CoV-2 (in words),[2]; listed as tetrandrine,obvious inhibitory effects
same,SI (selectivity index),[2]; MOI 0.01,15.22
same,SI (selectivity index),[2]; MOI 0.05,12.51
same,EC50,[2]; [5],1610 nM
same,EC50,[2]; [6],1950 nM
same,Cell viability (% of vehicle control),Vero-E6 cells; 1.56 μM,94.81 % of vehicle control
same,Cell viability (% of vehicle control),Vero-E6 cells; 3.13 μM,97.38 % of vehicle control
same,Cell viability (% of vehicle control),Vero-E6 cells; 6.25 μM,91.24 % of vehicle control
same,Cell viability (% of vehicle control),Vero-E6 cells; 12.5 μM,78.14 % of vehicle control
same,Cell viability (% of vehicle control),Vero-E6 cells; 25 μM,58.25 % of vehicle control
same,Cell viability (% of vehicle control),Vero-E6 cells; 50 μM,0.28 % of vehicle control
same,Cell viability (% of vehicle control),Vero-E6 cells; 100 μM,0.96 % of vehicle control
same,Toxicity on Vero E6 cells (in words),Vero-E6 cells; all tested concentrations,good safety for the test cells in vitro
same,CC50 at 24 h,[3],24500 nM
